Positions count from the first letter of the chain named. “And” between values parts separate entries of the source, which are not always exact repeats. Equal values may be shown once.
Columns and labels:
PEPCK-C 139Leu = molecular target: T1, PEPCK-C 139Leu (Sus scrofa, UniProt A0A4X1UM84, M139L); experiment: Compound 1 and 2 inhibition assays in PEP synthesis direction (Vmax and Km); type: biochemical, pig; settings: for Vmax (GTP) in presence of inhibitor / Vmax (OAA) in presence of inhibitor: 50 μM inhibitor; for Vmax (OAA) in presence of inhibitor: OAA variable substrate
T1 construct: made in house; host or cells: Escherichia coli BL21 (DE3)
T1 sequence (A0A4X1UM84 1-622 M139L): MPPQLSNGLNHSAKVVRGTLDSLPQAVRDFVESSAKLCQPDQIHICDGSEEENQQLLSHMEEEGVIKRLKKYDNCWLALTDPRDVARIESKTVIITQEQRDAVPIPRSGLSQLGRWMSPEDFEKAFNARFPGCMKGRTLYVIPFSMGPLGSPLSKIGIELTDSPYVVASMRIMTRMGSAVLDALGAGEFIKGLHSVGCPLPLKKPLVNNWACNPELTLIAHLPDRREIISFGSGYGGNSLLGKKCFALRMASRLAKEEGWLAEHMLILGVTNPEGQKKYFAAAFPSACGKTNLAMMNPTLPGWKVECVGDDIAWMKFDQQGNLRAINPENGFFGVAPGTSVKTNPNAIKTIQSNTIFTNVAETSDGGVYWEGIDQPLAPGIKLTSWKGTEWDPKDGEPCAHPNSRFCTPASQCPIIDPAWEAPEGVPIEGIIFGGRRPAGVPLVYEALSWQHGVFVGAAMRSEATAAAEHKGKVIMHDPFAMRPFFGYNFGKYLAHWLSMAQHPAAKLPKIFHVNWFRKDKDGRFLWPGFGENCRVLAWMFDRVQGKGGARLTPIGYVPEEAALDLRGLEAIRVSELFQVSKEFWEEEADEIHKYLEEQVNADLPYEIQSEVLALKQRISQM
Experimental: (§1) PEPCK-C activity was measured in an UNICAM 500 spectrometer (UNICAM Analytical Systems, UK) with coupled spectrophotometric assays using pyruvate kinase and lactate dehydrogenase as auxiliary enzymes in PEP synthesis reaction and malate dehydrogenase in the reverse reaction.
(§2) 3-MP inhibitions assays in OAA synthesis direction were carried out as described before with the exception of the variable substrate (50–600 μM for PEP and 10–100 μM for GDP) and 3-MP concentration (10–100 μM). Assays in the direction of PEP synthesis were performed in 1 mL of a 100 mM HEPES buffer pH 7.4, containing 10 mM DTT, 0.2 mM MnCl2, 2 mM MgCl2, 1 mM GTP or 400 μM OAA, 1 mM ADP, 0.2 mM NADH, PEPCK-C and 5 units of each pyruvate kinase and lactate dehydrogenase. Reactions were initiated by addition of OAA. Variable substrates were 5–50 μM OAA or 25–500 μM GTP and 3-MP concentrations were between 10–400 μM. Rates were calculated by measuring the decreasing slope at 340 nm of absorbance after subtracting the rate of spontaneous NADH oxidation in the case of OAA synthesis or the rate of the blank which contained all the components of the mix but PEPCK-C in the case of PEP synthesis.
(§3) Compound 1 and 2 inhibitions assays were performed in PEP synthesis direction as described in 3-MP inhibition assays. Variable substrates were 10–100 μM OAA or 25–500 μM GTP, inhibitors concentrations were around IC50 value (100 μM compound 1 or 50 μM compound 2) and 20 units of each pyruvate kinase and lactate dehydrogenase were also added.
(§4) Data from compound 1 and 2 inhibition assays were represented in double reciprocal plots to calculate Vmax and Km values using GraphPad Prism 3.03 software.

PEPCK-C 139Met [1] = molecular target: T2, PEPCK-C 139Met (Sus scrofa, UniProt A0A4X1UM84); experiment: as above; type: biochemical, pig; design: made in house; host or cells: Escherichia coli BL21 (DE3); settings: for Vmax (GTP) in presence of inhibitor / Vmax (OAA) in presence of inhibitor: 50 μM inhibitor; for Vmax (OAA) in presence of inhibitor: OAA variable substrate
T2 sequence (A0A4X1UM84 1-622): T1 sequence (A0A4X1UM84 1-622 M139L) with L139M
Experimental: as §1, §2, §3, §4

PEPCK-C 139Met [2] = experiment: Thermal-shift screening of chemical library (ANS fluorescence); type: binding, pig; settings: 25 μM compound, 4 μM PEPCK-C
Experimental: PEPCK-C effectors were identified from a chemical library using a screening procedure based on a thermal-shift assay. Potential protein effector compounds were dispensed into 96-well microplates. Each well contained 4 μM PEPCK-C in a 20 mM HEPES buffer pH 7.4, plus 1 mM TCEP, 100 μM ANS, 10% DMSO and either 1 or 5 chemical library compounds, each at a 25 μM concentration. […] 50 μL of mineral oil were added to each well to prevent evaporation. In a first screening round, 5 different compounds were present in each well. The binding of effectors to PEPCK-C was assessed by monitoring the thermal denaturation of the enzyme and identifying compounds inducing a stabilizing effect (increase in the unfolding temperature, Tm, compared to the free enzyme) in a FluoDia T70 High Temperature Fluorescence Microplate Reader (Photon Technology International, UK). To obtain Tm values, unfolding curves were fitted to Boltzmann function (Eq 1) using OriginPro 9.1 software. y(T) = A1−A2/1+exp(T−Tm/S)+A2 (1) where A1 and A2 are the asymptotic values of the signal in the pre- and post-transition region of the unfolding curve, respectively, and S is a parameter associated with the slope of the unfolding curve at the Tm and related to the unfolding enthalpy of the enzyme. […] In a second round, the compounds present in the positive wells were individually analyzed to identify the binders.

[3] = system: pyruvate kinase and lactate dehydrogenase; experiment: Inhibition of auxiliary enzymes; type: biochemical; settings: 25–200 μM compound; data not shown
Description: Reactions were initiated by addition of 0.5 units of each pyruvate kinase and lactate dehydrogenase.

Row | Reduction of Km value for GTP in presence of the inhibitor (PEPCK-C 139Leu; GTP variable substrate) | Rise of Km value for GTP in presence of the inhibitor (PEPCK-C 139Met [1]; GTP variable substrate) | Inhibition of / interaction with auxiliary enzymes [3] | SMILES | Vmax (GTP) in presence of inhibitor (PEPCK-C 139Leu; GTP variable substrate) | Vmax (OAA) in presence of inhibitor (PEPCK-C 139Leu) | Vmax (GTP) in presence of inhibitor (PEPCK-C 139Met [1]; GTP variable substrate) | Vmax (OAA) in presence of inhibitor (PEPCK-C 139Met [1]) | Increase in Tm compared with controls (PEPCK-C 139Met [2])
1 | about 30% | threefold | slight interaction | Cn1nc(-c2ccc(C=NNC(=O)c3ccc(Cl)cc3Cl)s2)cc1C(F)(F)F [compound 2, N'1-({5-[1-methyl-5-(trifluoromethyl)-1H-pyrazol-3-yl]-2-thienyl}methylidene)-2,4-dichlorobenzene-1-carbohydrazide] | 6.1 ± 1.0 ns μmol min^-1 mg^-1 | 12.7 µmol/min/mg and 12.7 ± 1.1 µmol/min/mg | 5.9 ± 2.3 µmol/min/mg | 4.6 µmol/min/mg and 4.6 ± 1.4 µmol/min/mg | around 8 °C
2 |  |  | slight inhibition | CC(=NNC(=S)NC1CCCCC1)c1sc(-c2cccs2)nc1C [compound 1, N1-cyclohexyl-2-{1-[4-methyl-2-(2-thienyl)-1,3-thiazol-5-yl]ethylidene}hydrazine-1-carbothiamide] | 7.2 μmol min^-1 mg^-1 and 7.2 ± 0.4 ns μmol min^-1 mg^-1 | 9.4 μmol min^-1 mg^-1 and 9.4 ± 1.3 ns μmol min^-1 mg^-1 | 7.8 µmol/min/mg and 7.8 ± 0.5 µmol/min/mg | 6.7 µmol/min/mg and 6.7 ± 1.4 µmol/min/mg | around 8 °C

Reference: PMC4938538, “Inhibition of Pig Phosphoenolpyruvate Carboxykinase Isoenzymes by 3-Mercaptopicolinic Acid and Novel Inhibitors” (PLoS ONE, 2016)
